Consider 4 compounds from patent publication US7816323B2, “Methods of using corticotropin-releasing factor for the use of the treatment of cancer” (priority 2008, dated 2010).

Series [1] has as its system human glioblastoma cell line U87 Flue. The experiment in a line: Brain tumor-bearing SCID mice (U87 Flue glioblastoma), 80-day survival and tumor progression study.
Description: The U87 Flue cell line was created by stably transducing U87 cells with a lentiviral construct containing the luc gene.
The test system of the next series is malignant brain tumor. Briefly: Clinical study of CRF in patients with malignant brain tumor (tumor size by MRI, survival). Format: in vivo, human. The method, then: Patients with malignant brain tumor were treated with 2 mg/day (1 mg dose, twice daily) of either human CRF subcutaneously. […] Additionally, of the 30 patients who had received treatment for at least 6 months, 10 experienced a decrease in tumor size.

In the next series the test system is peritumoral edema. Conditions: patients with peritumoral edema; cited from earlier work.
[2] abbreviates: high dose of CRF, 80-day study period.

For the compound `O=NN(CCCl)C(=O)NCCCl` [BiCNU, reference compound], the “brain tumor growth / response to treatment (photon emission)” value in series [1] (chemotherapeutic agents, TMZ: all mice but one) is “continued to grow”.
Take `Cn1nnc2c(C(N)=O)ncn2c1=O` [TMZ, reference compound]: the “mice still alive at the end of the 80-day study period” value in series [1] (TMZ-treated mice) is on record as 40%.
As to “CRF: endogenous 41 amino acid peptide, the major hypothalamic hormone responsible for stimulation of the pituitary-adrenal axis”, the “patients exhibiting a reduction in tumor size of around 90%” value in the series on malignant brain tumor (FIG. 2 patients, 2 mg/day s.c.) is “two”. Also, in the series on malignant brain tumor (FIGS. 1 and 2), the “survival of some patients after CRF treatment” value is recorded as 1-2 years. Further, the “survival of the overwhelming majority of patients” value in the series with malignant brain tumor (FIGS. 1 and 2, projected survival 3-6 months) is “live well beyond the projected 3-6 months”. Also, the “metastatic patients exhibiting survival beyond the projected 3-6 months” value in the series on malignant brain tumor (of the 3 metastatic patients in FIG. 3) came out at 3 patients. The “metastatic patients showing a reduction in tumor size at the last timepoint measured” value in the series on malignant brain tumor (of the 3 metastatic patients in FIG. 3, 2 mg/day s.c.) was 2 patients. Moreover, the “patients exhibiting a reduction in tumor size at the last time point measured” value in the series with malignant brain tumor (of the 10 patients in FIG. 2, 2 mg/day s.c.) stood at 8 patients. Further, in the series on malignant brain tumor (of the 20 patients in FIG. 1, 2 mg/day s.c.), the “patients exhibiting a maintenance in tumor size” value is 5 patients. Further, the “patients exhibiting a reduction in tumor size” value in the series on malignant brain tumor (of the 20 patients in FIG. 1, 2 mg/day s.c. (1 mg twice daily)) is recorded as 6 patients. In addition, the “patients exhibiting a reduction in tumor size by over 50%” value in the series with malignant brain tumor (of the 20 patients in FIG. 1, after 9 months of treatment, 2 mg/day s.c.) is on record as 3 patients. The “patients experiencing a decrease in tumor size” value in the series with malignant brain tumor (of the 30 patients treated for at least 6 months) is 10 patients. For the same compound, the “survival over the 80-day study period” value in series [1] (high dose of CRF, 100 μg/kg s.c. twice daily, all mice) is given as “survived the entire 80-day study period”. Besides, in series [1] (setting [2]), the “brain tumor progression (luminescence imaging)” value is reported as “did not progress during the 80-day study period” and the “health appearance of the mice during the study” value is recorded as “appeared healthy throughout”. Besides, in series [1] (low dose of CRF), the “brain tumor progression (luminescence imaging)” value is listed as “did not progress or progressed more slowly”; the mean survival time result was “between mice, that were administered a high dose of CRF, and mice that had received no treatment or were administered dexamethasone”; the “mice still alive at the end of the 80-day study period” value was found to be 60%.
On to corticorelin acetate, for which, in the series with peritumoral edema, the exposure to dexamethasone entry is on record as “reduced exposure to dexamethasone” and the steroid-related side effects entry was “improvement in steroid-related side effects”.
